Data on 29 compounds can be found in patent publication US20120115852A1, “HETEROCYCLIC COMPOUNDS AS AUTOTAXIN INHIBITORS” (Merck Patent Gesellschaft Mit Beschrankter Haftung, priority 2009, published 2012).

The target in the assay is T1, recombinant autotaxin (Homo sapiens, UniProt Q13822).
T1 construct: made in house; host or cells: Hi5 insect cells (baculovirus)
The experiment in a line: Autotaxin test (enzyme test), Amplex Red fluorescence with LPC substrate. Type of assay: biochemical. Conditions: autotaxin inhibition (enzyme test); for remaining activity at 10 µM: 10 μM compound, read-out: % Control at 10 μM. The method in brief:
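Purified recombinant autotaxin (baculovirus Hi5-expressed) pre-incubated with compound 30 min at 22° C, then LPC (final 75 μM) added and reacted 90 min at 37° C in Tris pH 8 buffer with CaCl2. Choline released was coupled via alkaline phosphatase, choline oxidase and peroxidase to Amplex Red; resorufin fluorescence read in kinetic mode (ex 485/em 612 nm).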

Where only a bound is given, the exact number is not on record here.

Consider `O=C1Nc2ccc(-c3ccc(Cl)cc3)cc2C(=O)N2CCN(C(=O)[C@@H]3CCCCN3)CC12` (stereo partly drawn) [Compound A21, 7-(4-Chlorophenyl)-2-((S)-piperidine-2-carbonyl)-1,3,4,11a-tetrahydro-2H,10H-2,4a,10-triaza-dibenzo[a,d]cycloheptene-5,11-dione], for which the remaining activity at 10 µM was 82% and the IC50 (commonly the concentration that inhibits the measured activity by half) is over 1000 nM.

`CC(C)(C)CC(=O)N1CCN2C(=O)c3cc(-c4ccc(Cl)cc4F)ccc3N(CC3CCNCC3)C(=O)C2C1` (centres unmarked) [Compound A147]: the remaining activity at 10 µM was determined as 62% and the IC50 was over 1000 nM.

`CC1(C)SCNC1C(=O)N1CCN2C(=O)c3cc(-c4ccc(Cl)cc4)ccc3NC(=O)C2C1` (centres unmarked) [Compound A141, 7-(4-Chlorophenyl)-2-(5,5-dimethylthiazolidine-4-carbonyl)-1,3,4,11a-tetrahydro-2H,10H-2,4a,10-triazadibenzo[a,d]cycloheptene-5,11-dione]: the remaining activity at 10 µM is -21% and the half-maximal inhibitory concentration (IC50) fell in the range of 100 to 1000 nM. `O=C1Nc2ccc(-c3ccco3)cc2C(=O)N2CCN(C(=O)CO)C[C@H]12` [Compound A6, (R)-7-Furan-2-yl-2-(2-hydroxyacetyl)-1,3,4,11a-tetrahydro-2H,10H-2,4a,10-triazadibenzo[a,d]-cycloheptene-5,11-dione]: the remaining activity at 10 µM was 73%. Regarding `O=C1Nc2ccc(-c3ccc(Cl)cc3)cc2C(=O)N2CCN(C(=O)C(O)c3cccc(C(F)(F)F)c3)CC12` (centres unmarked) [Compound A45, 7-(4-Chlorophenyl)-2-[2-hydroxy-2-(3-trifluoro-methylphenyl)acetyl]-1,3,4,11a-tetrahydro-2H,10H-2,4a,10-triazadibenzo[a,d]cycloheptene-5,11-dione], the remaining activity at 10 µM stood at 61% and the IC50 was over 1000 nM. In the case of `CN1CCC(N2C(=O)C3CN(C(=O)CC(C)(C)C)CCN3C(=O)c3cc(-c4ccc(Cl)cc4F)ccc32)CC1` (centres unmarked) [Compound A166], the remaining activity at 10 µM came to 10% and the IC50 is over 1000 nM. As to `O=C1Nc2ccc(-c3cccs3)cc2C(=O)N2CCN(C(=O)[C@@H](O)c3ccccc3)C[C@H]12` [Compound A3, (R)-2-((S)-2-Hydroxy-2-phenylacetyl)-7-thiophen-2-yl-1,3,4,11a-tetrahydro-2H,10H-2,4a,10-triaza-dibenzo[a,d]cycloheptene-5,11-dione], the remaining activity at 10 µM turned out to be 86%. In the case of `O=C1Nc2ccc(-c3ccc(Cl)cc3)cc2C(=O)N2CCN(C(=O)C3CCCN3C(=O)Nc3ccc(Cl)cc3)CC12` (centres unmarked) [Compound A111, N-(4-Chlorophenyl)-2-[7-(4-chlorophenyl)-5,11-dioxo-3,4,5,10,11,11a-hexahydro-1H-2,4a,10-triaza-dibenzo[a,d]cycloheptene-2-carbonyl]pyrrolidine-1-carboxamide], the remaining activity at 10 µM is 3% and the half-maximal inhibitory concentration (IC50) was over 1000 nM. On to `CC(C)(C)CC(=O)N1CCN2C(=O)c3cc(-c4ccc(Cl)cc4F)ccc3N(CCN3CCOCC3)C(=O)[C@H]2C1` [Compound A148], for which the remaining activity at 10 µM was determined as 10% and the IC50 was over 1000 nM. Turning to `O=C1Nc2ccc(-c3ccc(Cl)cc3)cc2C(=O)N2CCN(C(=O)c3cscn3)CC12` (centres unmarked) [Compound A36, 7-(4-Chlorophenyl)-2-(thiazole-4-carbonyl)-1,3,4,11a-tetrahydro-2H,10H-2,4a,10-triaza-dibenzo[a,d]cycloheptene-5,11-dione], the IC50 lay in the range of 100 to 1000 nM. With `CC(C)(C)C(=O)N1CCN2C(=O)c3cc(-c4ccc(Cl)cc4)ccc3NC(=O)C2C1` (centres unmarked) [Compound A109, 7-(4-Chlorophenyl)-2-(2,2-dimethylpropionyl)-1,3,4,11a-tetrahydro-2H,10H-2,4a,10-triaza-dibenzo[a,d]cycloheptene-5,11-dione], the remaining activity at 10 µM was -21% and the IC50 is over 1000 nM. On to `COc1ccc(-c2ccc3c(c2)C(=O)N2CCN(C(=O)[C@@H](O)c4ccccc4)C[C@@H]2C(=O)N3)cc1` [Compound B2], for which the remaining activity at 10 µM amounted to 84%. Turning to `CCCc1nn(C)cc1C(=O)N1CCN2C(=O)c3cc(-c4ccc(Cl)cc4)ccc3NC(=O)C2C1` (centres unmarked) [Compound A23, 7-(4-Chlorophenyl)-2-(1-methyl-3-propyl-1H-pyrazole-4-carbonyl)-1,3,4,11a-tetrahydro-2H,10H-2,4a,10-triazadibenzo[a,d]cycloheptene-5,11-dione], the remaining activity at 10 µM is 54% and the IC50 is over 1000 nM. `O=C1Nc2ccc(-c3ccc(Cl)cc3)cc2C(=O)N2CCN(C(=O)C3(c4ccc(Cl)cc4)CC3)CC12` (centres unmarked) [Compound A47, 7-(4-Chlorophenyl)-2-[1-(4-chlorophenyl)-cyclopropanecarbonyl]-1,3,4,11a-tetrahydro-2H,10H-2,4a,10-triazadibenzo[a,d]cycloheptene-5,11-dione]: the half-inhibitory concentration (IC50) is over 1000 nM.

As to `O=C1Nc2ccc(-c3ccc(Cl)cc3F)cc2C(=O)N2CCN(C(=O)[C@H]3NCC[C@@H]3O)CC12` (stereo partly drawn) [Compound A69, 7-(4-Chloro-2-fluorophenyl)-2-((2S,3S)-3-hydroxy-pyrrolidine-2-carbonyl)-1,3,4,11a-tetrahydro-2H,10H-2,4a,10-triazadibenzo[a,d]cycloheptene-5,11-dione], the remaining activity at 10 µM is 58%.

Take `O=C1Nc2ccc(-c3ccc(Cl)cc3)cc2C(=O)N2CCN(C(=O)[C@@H]3CCCN3)CC12` (stereo partly drawn) [Compound A114, 7-(4-Chlorophenyl)-2-((S)-pyrrolidine-2-carbonyl)-1,3,4,11a-tetrahydro-2H,10H-2,4a,10-triaza-dibenzo[a,d]cycloheptene-5,11-dione]: the remaining activity at 10 µM was 28% and the IC50 is over 1000 nM. For `COCCN1C(=O)C2CN(C(=O)CC(C)(C)C)CCN2C(=O)c2cc(-c3ccc(Cl)cc3)ccc21` (centres unmarked) [Compound A135, 7-(4-Chlorophenyl)-2-(3,3-dimethylbutyryl)-10-(2-methoxyethyl)-1,3,4,11a-tetrahydro-2H,10H-2,4a,10-triazadibenzo[a,d]cycloheptene-5,11-dione] the same measures were -9% and over 1000 nM. Consider `CC(C)(C)CC(=O)N1CCN2C(=O)c3cc(-c4ccccc4F)ccc3NC(=O)C2C1` (centres unmarked) [Compound A13, 2-(3,3-Dimethylbutyryl)-7-(2-fluorophenyl)-1,3,4,11a-tetrahydro-2H,10H-2,4a,10-triaza-dibenzo[a,d]cycloheptene-5,11-dione], for which the IC50 was over 1000 nM. As to `O=C(C(=O)N1CCN2C(=O)c3cc(-c4ccc(Cl)cc4)ccc3NC(=O)C2C1)c1ccccc1` (centres unmarked) [Compound A35, 7-(4-Chlorophenyl)-2-(2-oxo-2-phenylacetyl)-1,3,4,11a-tetrahydro-2H,10H-2,4a,10-triaza-dibenzo[a,d]cycloheptene-5,11-dione], the remaining activity at 10 µM was determined as 11% and the half-inhibitory concentration (IC50) was over 1000 nM. Turning to `O=C1Nc2ccc(-c3ccc(Cl)cc3F)cc2C(=O)N2CCN(S(=O)(=O)CC3CCCCC3)C[C@H]12` [Compound A174], the remaining activity at 10 µM came out at 21% and the half-inhibitory concentration (IC50) was in the range of 100 to 1000 nM.

For the compound `CC(C)(CC(=O)O)CC(=O)N1CCN2C(=O)c3cc(-c4ccc(Cl)cc4)ccc3NC(=O)[C@H]2C1` [Compound B8], the remaining activity at 10 µM was 70%.

Regarding `CC(C)(C)[C@H](O)C(=O)N1CCN2C(=O)c3cc(-c4ccc(Cl)cc4F)ccc3NC(=O)[C@@H]2C1` [Compound A64, (S)-7-(4-Chloro-2-fluorophenyl)-2-((S)-2-hydroxy-3,3-dimethylbutyryl)-1,3,4,11a-tetrahydro-2H,10H-2,4a,10-triazadibenzo[a,d]cycloheptene-5,11-dione], the remaining activity at 10 µM is 31% and the IC50 is over 1000 nM. With `O=C1Nc2ccc(-c3ccc(Cl)cc3F)cc2C(=O)N2CCN(C(=O)[C@@H]3CCCN3C3CCCNC3)C[C@H]12` (stereo partly drawn) [Compound A123, (R)-7-(4-Chloro-2-fluorophenyl)-2-((S)-1-piperidin-3-ylpyrrolidine-2-carbonyl)-1,3,4,11a-tetrahydro-2H,10H-2,4a,10-triazadibenzo[a,d]cycloheptene-5,11-dione], the remaining activity at 10 µM amounted to 6% and the IC50 fell in the range of 100 to 1000 nM. With `CC(C)(C)CC(=O)N1CCN2C(=O)c3cc(-c4ccc(Cl)cc4F)ccc3N(CCN3CCOCC3)C(=O)C2C1` (centres unmarked) [Compound A143], the remaining activity at 10 µM came out at 3% and the IC50 was in the range of 100 to 1000 nM. Regarding `CC(C)(C)[C@@H](NC=O)C(=O)N1CCN2C(=O)c3cc(-c4ccc(Cl)cc4)ccc3NC(=O)C2C1` (stereo partly drawn) [Compound A55, N-{(R)-1-[7-(4-Chlorophenyl)-5,11-dioxo-3,4,5,10,11,11a-hexahydro-1H-2,4a,10-triaza-dibenzo[a,d]cycloheptene-2-carbonyl]-2,2-dimethylpropyl}formamide], the remaining activity at 10 µM was found to be 71%.

As for `CC(C)(C)CC(=O)N1CCN2C(=O)c3cc(-c4ccc(Cl)cc4F)ccc3NC(=O)[C@H]2C1` [Compound A100, (R)-7-(4-Chloro-2-fluorophenyl)-2-(3,3-dimethyl-butyryl)-1,3,4,11a-tetrahydro-2H,10H-2,4a,10-triazadibenzo[a,d]cycloheptene-5,11-dione], the remaining activity at 10 µM was determined as 11% and the half-inhibitory concentration (IC50) was over 1000 nM. For `CC(C)(C)CC(=O)N1CCN2C(=O)c3cc(-c4ccc(Cl)cc4)ccc3NC(=O)C2C1` (centres unmarked) [Compound B26], the IC50 fell in the range of 100 to 1000 nM. For `CC(C)(C)[C@H](O)C(=O)N1CCN2C(=O)c3cc(-c4ccc(Cl)cc4)ccc3NC(=O)C2C1` (stereo partly drawn) [Compound A34, 7-(4-Chlorophenyl)-2-((S)-2-hydroxy-3,3-dimethylbutyryl)-1,3,4,11a-tetrahydro-2H,10H-2,4a,10-triazadibenzo[a,d]cycloheptene-5,11-dione], the IC50 was in the range of 100 to 1000 nM.

In the case of `CC(C)(C)[C@H](N)C(=O)N1CCN2C(=O)c3cc(-c4ccc(Cl)cc4F)ccc3NC(=O)[C@H]2C1` [Compound A65, (R)-2-((S)-2-Amino-3,3-dimethylbutyryl)-7-(4-chloro-2-fluorophenyl)-1,3,4,11a-tetrahydro-2H,10H-2,4a,10-triazadibenzo[a,d]cycloheptene-5,11-dione], the remaining activity at 10 µM was 48.5% and the 50% inhibitory concentration (IC50) was over 1000 nM.
